Laboratory results taken from publication PMC6934184, “Selective DNA-PKcs inhibition extends the therapeutic index of localized radiotherapy and chemotherapy” (The Journal of Clinical Investigation, 2019).

Molecular target: T1, CDK5 (Inactive) (Homo sapiens, UniProt Q00535)
T1 construct: purchased Thermo Fisher Scientific (Life Technologies) SelectScreen
Experiment: SelectScreen LanthaScreen
Type: binding
Conditions: read-out: % displacement
Summary of the method: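 SelectScreen broad panel; activity (Z'LYTE, Adapta) plus binding formats. ATP: Km app for CSF1R Z'LYTE; 10 for CAMK1 Adapta. Readout = % per kinase.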

T1 sequence (Q00535 whole entry): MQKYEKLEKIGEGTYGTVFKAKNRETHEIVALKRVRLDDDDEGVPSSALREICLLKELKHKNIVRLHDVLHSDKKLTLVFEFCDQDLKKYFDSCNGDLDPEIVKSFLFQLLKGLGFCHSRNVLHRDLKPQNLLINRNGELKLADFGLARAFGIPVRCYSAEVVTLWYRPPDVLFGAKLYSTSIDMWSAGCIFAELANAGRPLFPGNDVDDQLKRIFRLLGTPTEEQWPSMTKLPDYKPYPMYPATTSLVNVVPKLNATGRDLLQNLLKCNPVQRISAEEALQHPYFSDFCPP

CN(C(=O)CN1CCOCC1)c1ccc2sc3c(-c4cccc5c(=O)cc(N6CC7CCC(C6)O7)oc45)cccc3c2c1 [NU5455]
inhibition at 1 µM: -2.1%
